According to patent EP4745128A1, “COMPOUND, PHARMACEUTICAL COMPOSITION COMPRISING SAME, AND USE THEREOF” (Shenzhen Zhongge Biological Technology Co., Ltd., priority 2023, dated 2025):

Assays:
[1] = system: HEK293T/17-ATF4 uORF-Luc-Puro monoclonal cells; experiment: Cellular activity assay: ATF4 luciferase reporter, thapsigargin-induced stress; format: cell-based; conditions: Homo sapiens, HEK-293T; ATF4 reporter expression; 50 nM thapsigargin, 6 h incubation
Excerpt: The ATF4 luciferase reporter plasmid consists of two components: the 5' untranslated region sequence of the ATF4 gene and the luciferase encoding sequence. Specifically, the ATF4 5' untranslated region sequence (NCBI Database accession number BC022088.2) containing two upstream open reading frames (uORFs) and the firefly luciferase encoding gene were cloned into the pLVX-Puro vector (Unibio, VT1465). The packaging plasmids for lentivirus are psPAX2 (Unibio, VT1444) and pMD2.G (Unibio, VT1443). The three plasmids above were co-transfected into HEK293T/17 cells using X-tremeGENE 9 DNA transfection reagent, and the lentivirus-containing culture medium was collected 48 hours post-transfection. The HEK293T/17 cells transduced with the lentivirus were selected using 1 µg/mL puromycin, followed by obtaining a monoclonal cell line via limited dilution.
Using this cell line, the translational regulation of ATF4 can be detected via […], and the activity of the eIF2B activator can be tested. The specific experimental procedure was as follows: Seed 6,000 HEK293T/17-ATF4 uORF-Luc-Puro monoclonal cells in a 384-well plate and allow the cells to adhere overnight. The test compounds were dissolved in DMSO and added along with 50 nM thapsigargin into the cell culture medium, followed by incubation for 6 h. Thapsigargin was used to induce cellular stress, thereby upregulating translation of the ATF4 protein. After 6 hours of treatment, cells were lysed using the One-Glo Luciferase Assay Kit (Promega #E6120), then the luminescence values were measured using the LUM program of the EnVision 2104 plate reader.
The relative expression level of the ATF4 reporter gene (ATF4 reporter expression %) was calculated as follows: • ATF4 reporter expression %=(ave_sample-ave_vc)/(ave_pc-ave_vc)*100%. • ave_vc: mean signal value of negative control • ave_pc: mean signal value of positive control • ave_sample: mean signal value of sample
The EC50 value was calculated by fitting a dose-response curve: • The correspondence between the relative expression level of the ATF4 reporter gene and the compound concentration was fitted using the nonlinear regression log(inhibitor) vs. response - variable slope (four parameters) approach in GraphPad 9 software. • X axis: log of compound concentration; Y: relative expression level of ATF4 reporter gene. • Y = Bottom + (Top−Bottom)/(1+10^(∧)((LogEC50−X)*HillSlope)) [formula]

model animals = conditions: after three days of oral administration; cited from earlier work
mouse models = conditions: cited from earlier work
[2] = Pharmacokinetic assessment in mice; format: in vivo; conditions: plasma
Experimental: The test compound was dissolved in a solvent to prepare a clear solution or homogeneous suspension. Three mice per group were administered 1 mg/kg intravenously in the tails and 30 mg/kg orally (PO). Blood samples were collected at 0.083 h, 0.25 h, 0.5 h, 1 h, 2 h, 4 h, 8 h, and 24 h post intravenous administration, and at 0.25 h, 0.5 h, 1 h, 2 h, 4 h, 6 h, 8 h, and 24 h post oral administration. Plasma samples were centrifuged to obtain the supernatant, which was prepared as samples for quantitative analysis by LC/MS/MS. Table 2 PK Properties of Exemplary Compound 3 in Mice

[3] = Phase 1 data from healthy subjects; cited from earlier work

With `O=C(COc1ccc(Cl)c(F)c1)N[C@H]1CC[C@H](Nc2ncccc2O[C@H]2C[C@@H](OC(F)(F)F)C2)CC1` [Compound 2] the EC50 [1] was > 100 nM.

In the case of `NC(CO)(CO)CO.O=C(COc1ccc(Cl)c(F)c1)NC12CCC(NC(=O)COc3ccc(Cl)c(F)c3)(CC1)[C@@H](OCOP(=O)([O-])O)C2.[Na+]` [ABBV-CLS-7262], the brain function (model animals) is listed as “restored to youthful levels”.

For `O=C(CO[C@H]1C[C@@H](OC(F)(F)F)C1)N[C@H]1CC[C@H](Nc2nccnc2O[C@H]2C[C@@H](OC(F)(F)F)C2)CC1` [Compound 5], the EC50 [1] was > 100 nM.

In the case of `O=C(COc1ccc(Cl)cc1)NC1CCC(NC(=O)COc2ccc(Cl)cc2)CC1` (stereo not drawn) [ISRIB], the long-term memory (mouse models) is given as “improve long-term memory”.

With `FC(F)(F)OC1CN(c2nnc([C@H]3CC[C@H](Nc4nccnc4O[C@H]4C[C@@H](OC(F)(F)F)C4)CC3)o2)C1` [Compound 4] the EC50 [1] was > 100 nM.

Work on `O=C(CO[C@H]1C[C@@H](OC(F)(F)F)C1)NC12CC(Nc3nccnc3O[C@H]3C[C@@H](OC(F)(F)F)C3)(C1)C2` [Compound 3] yielded an AUC(0-t) ([2]; mouse IV (1 mg/kg)) of 6.32 µg·h/mL, a C0 ([2]; mouse IV (1 mg/kg)) of 2620 ng/mL and a clearance ([2]; mouse IV (1 mg/kg)) of 2.49 mL/min/kg. It also gave a half-life ([2]; mouse IV (1 mg/kg)) of 7.37 h, a Vd ([2]; mouse IV (1 mg/kg), read-out: Vss) of 1410 L/kg and an AUC(0-t) ([2]; mouse PO (30 mg/kg)) of 217 µg·h/mL. The Cmax ([2]; mouse PO (30 mg/kg)) was 20100 ng/mL, the Tmax ([2]; mouse PO (30 mg/kg)) was 2.33 h and the bioavailability ([2]; mouse PO (30 mg/kg)) was 114%. For the same compound, the half-life ([2]; mouse PO (30 mg/kg)) was 8.52 h and the EC50 [1] was 1 to 10 nM.

In the case of `O=C(COc1ccc(Cl)c(F)c1)N[C@H]1CC[C@H](Nc2nccnc2O[C@H]2C[C@@H](OC(F)(F)F)C2)CC1` [Compound 1], the EC50 [1] is reported as 10 to 100 nM.

For `O=C(COc1ccc(Cl)cc1)NC12CC(c3nnc([C@H]4C[C@@H](OC(F)(F)F)C4)o3)(C1)C2` [DNL-343], the safety and tolerability [3] is given as “safe and well-tolerated”.
